{"source": "patent US9365833B2", "about": "“Leucine zipper variant and use thereof” (Samsung Electronics Co., Ltd., priority 2013, dated 2016)", "test_system": "skin cancer cell line A-431", "assay": "cancer cell growth inhibition (CellTiter-Glo cell viability)", "format": "cell-based", "conditions": "mutant p53 expression, up to 15 μM, 5 days; FIG. 11", "method": "The leucine zipper variant p53LZ2 was evaluated for anticancer activity against the osteosarcoma cell line SJSA-1 (ATCC), the breast cancer cell line MCF7 (ATCC), and the skin cancer cell line A-431 (ATCC), the first two expressing wild-type p53 and the other expressing mutant p53.\nEach of the cell lines was seeded at a density of 1×10^3 cells/well in 10% FBS-supplemented RPMI (Gibco) or DMEM (Gibco) into 96-well plates. The next day, the leucine zipper variant (TAT-p53LZ2; TAT (RKKRRQRRR; SEQ ID NO: 5) linked to the N-terminus of p53LZ2, constructed in Example 1) or Nutlin-3 (Sigma) was added at a concentration of 0, 0.59, 0.88, 1.32, 1.98, 2.96, 4.44, 6.67, 10, or 15 μM (increasing by 1.5 fold) in an amount of 100 μL to each well before the cells were cultured for 5 days at 37° C. in an 5% CO2 incubator. To each well was added 80 μL of CellTiter-Glo reagent (Promega), followed by measuring luminescence on EnVision Multilabel Reader (PerkinElmer) to examine cell viability."}
{"smiles": "COc1ccc(C2=N[C@@H](c3ccc(Cl)cc3)[C@@H](c3ccc(Cl)cc3)N2C(=O)N2CCNC(=O)C2)c(OC(C)C)c1", "note": "[Nutlin-3]", "values": [{"measurement": "cytotoxicity in A431 cell line", "result": "failed to exert cytotoxicity"}]}
